Test results reported in US20140135310A1, “SULPHONAMIDE DERIVATIVES OF ALICYCLIC AMINES FOR THE TREATMENT OF CENTRAL NERVOUS SYSTEM DISEASES” (Adamed Sp. z o.o., priority 2011, published 2014).

Assays:
[1] = target: T1, 5-HT7 receptor (Homo sapiens, UniProt P34969); test: Radioligand binding assay, serotoninergic 5-HT7 receptors; conditions: binding assay result in %, Table 5a;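 further: test compound at 1 µM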
T1 construct: purchased PerkinElmer
In short: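 Ki values used the Cheng–Prusoff equation, with KD from Scatchard analysis, applied to IC50 from Hill fits of human 5-HT7 radioligand competition curves. Bound radioligand was counted by scintillation, and excess unlabelled ligand set the non-specific binding.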

[2] = target: T2, 5-HT6 receptor (Homo sapiens, UniProt P50406); test: Radioligand binding assay, serotoninergic 5-HT6 receptors; conditions: binding assay result in %, Table 5a;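 further: test compound at 1 µM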
T2 construct: purchased PerkinElmer
T2 sequence (P50406 whole entry): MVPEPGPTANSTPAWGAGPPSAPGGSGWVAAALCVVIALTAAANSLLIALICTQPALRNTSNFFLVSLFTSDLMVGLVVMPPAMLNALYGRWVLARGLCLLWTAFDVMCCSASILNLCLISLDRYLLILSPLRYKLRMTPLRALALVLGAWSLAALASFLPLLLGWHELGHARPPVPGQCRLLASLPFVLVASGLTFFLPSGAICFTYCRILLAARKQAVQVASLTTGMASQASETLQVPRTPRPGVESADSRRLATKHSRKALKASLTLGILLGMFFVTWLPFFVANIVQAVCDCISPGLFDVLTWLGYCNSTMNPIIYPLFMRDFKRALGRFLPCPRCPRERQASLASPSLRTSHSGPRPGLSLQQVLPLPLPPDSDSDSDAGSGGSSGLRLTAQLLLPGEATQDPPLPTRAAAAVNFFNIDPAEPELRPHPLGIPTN
In short: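 Values are Ki from Cheng–Prusoff, taking IC50 from Hill nonlinear regression of competition curves and KD from a Scatchard plot. Specific binding was total minus binding with excess unlabelled ligand. Radioligand displacement was detected by scintillation counting, and data were also reported as percent of control specific binding.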

[3] = target: T3, serotonin transporter (SERT) (Homo sapiens, UniProt P31645); test: Radioligand binding assay, serotonin transporter (SERT); conditions: binding assay, test compound 1×10^−6 M
T3 construct: expressed in transfected cells; host or cells: CHO cells
T3 sequence (P31645 whole entry): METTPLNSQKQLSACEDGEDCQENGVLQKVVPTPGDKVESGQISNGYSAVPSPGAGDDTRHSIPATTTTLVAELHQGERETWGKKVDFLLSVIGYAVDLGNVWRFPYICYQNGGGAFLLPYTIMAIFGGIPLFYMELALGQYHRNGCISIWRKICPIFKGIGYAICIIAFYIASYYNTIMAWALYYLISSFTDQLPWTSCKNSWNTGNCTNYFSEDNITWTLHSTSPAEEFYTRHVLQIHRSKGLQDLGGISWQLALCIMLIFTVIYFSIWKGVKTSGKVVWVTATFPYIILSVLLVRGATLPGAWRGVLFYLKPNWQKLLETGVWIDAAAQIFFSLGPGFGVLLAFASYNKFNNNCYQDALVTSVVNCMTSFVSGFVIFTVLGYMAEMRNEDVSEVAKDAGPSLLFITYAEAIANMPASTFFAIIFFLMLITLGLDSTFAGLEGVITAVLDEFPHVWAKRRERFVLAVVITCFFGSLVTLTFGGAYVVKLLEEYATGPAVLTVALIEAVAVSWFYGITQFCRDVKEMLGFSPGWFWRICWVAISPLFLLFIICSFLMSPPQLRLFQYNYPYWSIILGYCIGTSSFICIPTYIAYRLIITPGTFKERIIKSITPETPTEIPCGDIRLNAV
In short: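 Values are derived from competition curves fitted by the Hill equation to give IC50, then converted to Ki by Cheng-Prusoff with radioligand Kd from Scatchard analysis. Specific binding equals total minus non-specific (excess cold ligand), counted by scintillation, and is also expressed as percent inhibition of control.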

[4] = target: dopaminergic receptors D3 (Homo sapiens, UniProt P35462); test: Radioligand binding assay, dopaminergic D3 receptors; conditions: test compound 1×10^−6 M
Chain of dopaminergic receptors D3 (P35462 whole entry): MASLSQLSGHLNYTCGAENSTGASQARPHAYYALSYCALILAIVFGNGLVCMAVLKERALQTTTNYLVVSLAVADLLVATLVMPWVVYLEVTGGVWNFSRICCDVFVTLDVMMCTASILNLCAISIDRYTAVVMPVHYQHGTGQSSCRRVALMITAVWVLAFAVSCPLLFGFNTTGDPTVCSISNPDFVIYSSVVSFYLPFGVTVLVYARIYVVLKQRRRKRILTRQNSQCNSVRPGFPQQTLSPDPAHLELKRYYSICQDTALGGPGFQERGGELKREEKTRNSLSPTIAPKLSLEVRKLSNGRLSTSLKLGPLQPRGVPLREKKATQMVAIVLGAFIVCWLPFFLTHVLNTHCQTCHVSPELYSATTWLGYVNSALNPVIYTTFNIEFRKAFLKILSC
In short: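 Scintillation read-out. Specific = total − nonspecific (excess cold ligand). Data as % of control specific binding / % inhibition; IC50 by Hill fit; Ki = IC50/(1+L/KD), KD from Scatchard plot.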

[5] = test system: α1 adrenergic receptors (rat cerebral cortex); test: Radioligand binding assay, adrenergic α1 receptors; conditions: test compound 1×10^−6 M
Source text: The specific ligand binding to the receptors is defined as the difference between the total binding and the non-specific binding determined in the presence of the excess of unlabelled ligand.
The results are expressed as a percent of control specific binding ((measured specific binding/control specific binding)×100) and as a percent inhibition of control specific binding (100−((measured specific binding/control specific binding)×100)) obtained in the presence of the test compounds. The specific ligand binding to the receptors is defined as the difference between the total binding and the nonspecific binding determined in the presence of an excess of unlabelled ligand. Scintillation counting was the method of detection of ligand binding. The IC50 values (concentration causing a half-maximal inhibition of control specific binding) were determined by non-linear regression analysis of the competition curves generated with mean replicate values using Hill equation curve fitting (Y=D+[(A−D)/(1+(C/C50)nH)], where Y=specific binding, D=minimum specific binding, A=maximum specific binding, C=compound concentration, C50=IC50, and nH=slope factor). […] The inhibition constants (Ki) were calculated using the Cheng Prusoff equation (Ki=IC50/(1+(L/KD)), where L=concentration of radioligand in the assay, and KD=affinity of the radioligand for the receptor). A scatchard plot was used to determine the Kd.

[6] = target: T4, 5-HT2A receptor (Homo sapiens, UniProt P28223); test: Radioligand binding assay, serotoninergic 5-HT2A receptors; conditions: binding assay result in %, Table 5a
T4 construct: purchased PerkinElmer
T4 sequence (P28223 whole entry): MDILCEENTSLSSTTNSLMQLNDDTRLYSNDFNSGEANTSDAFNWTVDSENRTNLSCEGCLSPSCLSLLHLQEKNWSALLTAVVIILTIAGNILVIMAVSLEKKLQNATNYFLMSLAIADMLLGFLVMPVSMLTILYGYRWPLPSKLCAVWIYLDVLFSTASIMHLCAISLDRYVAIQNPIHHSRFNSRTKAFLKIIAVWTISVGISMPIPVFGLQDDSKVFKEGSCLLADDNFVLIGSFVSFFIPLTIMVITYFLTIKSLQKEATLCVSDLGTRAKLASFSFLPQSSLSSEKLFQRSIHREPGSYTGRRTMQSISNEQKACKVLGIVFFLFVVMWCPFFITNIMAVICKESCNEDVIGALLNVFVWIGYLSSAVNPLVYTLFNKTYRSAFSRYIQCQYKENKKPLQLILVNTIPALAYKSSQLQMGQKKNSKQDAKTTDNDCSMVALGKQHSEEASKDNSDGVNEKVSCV
In short: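 Competition curves from scintillation-counted specific binding (total minus binding with excess unlabelled ligand) were Hill-fitted to give IC50, converted to Ki via Cheng-Prusoff using Scatchard-derived Kd.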

[7] = target: dopaminergic receptors D2 (Homo sapiens, UniProt P14416); test: Radioligand binding assay, dopaminergic D2 receptors; conditions: binding assay, test compound 1×10^−6 M
Chain of dopaminergic receptors D2 (P14416 whole entry): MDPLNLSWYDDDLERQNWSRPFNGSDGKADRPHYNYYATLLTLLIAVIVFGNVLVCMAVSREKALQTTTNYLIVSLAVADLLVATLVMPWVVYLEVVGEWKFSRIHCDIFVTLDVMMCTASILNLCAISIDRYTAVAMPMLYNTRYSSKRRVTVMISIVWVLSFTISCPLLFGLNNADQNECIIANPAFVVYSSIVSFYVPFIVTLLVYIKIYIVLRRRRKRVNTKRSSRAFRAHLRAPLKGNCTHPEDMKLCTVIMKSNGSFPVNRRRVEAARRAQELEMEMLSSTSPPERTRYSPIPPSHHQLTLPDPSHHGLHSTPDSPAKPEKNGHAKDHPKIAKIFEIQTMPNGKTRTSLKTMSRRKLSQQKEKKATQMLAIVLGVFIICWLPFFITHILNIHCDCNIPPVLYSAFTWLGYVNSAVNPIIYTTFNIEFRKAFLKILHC
In short: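 Displacement of radioligand from human dopamine D2, D3 or D4.4 receptors, counted by scintillation; specific binding is total minus binding under excess unlabelled ligand. IC50 values come from Hill curve fits of percent inhibition, then converted to Ki by Cheng-Prusoff using Scatchard-derived KD.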

[8] = target: T5, 5-HT1A receptor (rat hippocampus) (Rattus norvegicus, UniProt P19327); test: Radioligand binding assay, serotoninergic 5-HT1A receptors; conditions: binding assay result in %, Table 5a;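 further: test compound at 1 µM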
T5 construct: hippocampus; from tissue; host or cells: rat hippocampus
T5 sequence (P19327 1-422): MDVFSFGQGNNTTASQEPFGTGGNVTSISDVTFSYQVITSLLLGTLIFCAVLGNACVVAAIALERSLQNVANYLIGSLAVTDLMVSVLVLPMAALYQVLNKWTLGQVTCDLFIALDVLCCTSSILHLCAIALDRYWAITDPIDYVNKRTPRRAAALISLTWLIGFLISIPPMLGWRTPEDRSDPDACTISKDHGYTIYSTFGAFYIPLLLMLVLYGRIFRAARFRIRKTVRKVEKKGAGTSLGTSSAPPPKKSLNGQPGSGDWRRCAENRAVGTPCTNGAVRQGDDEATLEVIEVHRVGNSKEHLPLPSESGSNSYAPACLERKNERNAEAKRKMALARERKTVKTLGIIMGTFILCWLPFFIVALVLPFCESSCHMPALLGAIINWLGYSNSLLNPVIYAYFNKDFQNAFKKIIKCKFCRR

T1 sequence (P34969 whole entry): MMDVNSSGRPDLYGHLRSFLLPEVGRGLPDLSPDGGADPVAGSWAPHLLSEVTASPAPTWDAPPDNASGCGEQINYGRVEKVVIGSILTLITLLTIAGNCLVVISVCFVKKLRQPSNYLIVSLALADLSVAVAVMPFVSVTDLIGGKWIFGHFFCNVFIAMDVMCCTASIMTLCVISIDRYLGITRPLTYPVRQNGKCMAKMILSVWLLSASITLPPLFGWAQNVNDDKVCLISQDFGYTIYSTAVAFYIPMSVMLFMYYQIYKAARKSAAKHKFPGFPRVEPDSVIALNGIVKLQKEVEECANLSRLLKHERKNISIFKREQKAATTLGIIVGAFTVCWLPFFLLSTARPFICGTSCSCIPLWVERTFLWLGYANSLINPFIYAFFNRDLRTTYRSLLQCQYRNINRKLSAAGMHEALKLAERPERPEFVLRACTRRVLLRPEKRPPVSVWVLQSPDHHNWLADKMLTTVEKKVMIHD

Row | Molecule | inhibition at 1 µM [1] | inhibition at 1 µM [2] | inhibition at 1 µM [3] | inhibition at 1 µM [4] | α1 [%] [5] | inhibition at 1 µM [6] | inhibition at 1 µM [7] | inhibition at 1 µM [8] | 5-HT7 [%] [1] | 5-HT6 [%] [2] | SERT [%] [3] | D3 [%] [4] | 5-HT2A [%] [6] | D2 [%] [7] | 5-HT1A [%] [8]
1 | O=S(=O)(NCC1CCN(CCOc2cccc3ccccc23)C1)c1cc2ccc(Cl)cc2s1 (stereo not shown) [Compound 269, 6-Chloro-N-[[1-[2-(1-naphthyloxy)ethyl]pyrrolidin-3-yl]methyl]-benzothiophene-2-sulphonamide] | 98% | 82% | 53% | 89% | −1% | 91% | 38% | 60% |  |  |  |  |  |  | 
2 | O=S(=O)(NCC1CN(CCCc2c[nH]c3ccc(Cl)cc23)C1)c1ccc2ccccc2c1 [Compound 161, N-[[1-[3-(5-Chloro-1H-indol-3-yl)propyl]azetidin-3-yl]methyl]naphthalene-2-sulphonamide] | 83% | 87% | 66% | 75% | 46% | 88% | 84% | 86% |  |  |  |  |  |  | 
3 | O=S(=O)(NCC1CN(CCOc2cccc3c2OCCO3)C1)c1cccs1 [Compound 184, N-[[1-[2-(2,3-Dihydro-1,4-benzodioxin-5-yloxy)ethyl]azetidin-3-yl]methyl]-thiophene-2-sulphonamide] | 89% | 20% | 1% | 39% | 88% | 76% | 24% | 71% |  |  |  |  |  |  | 
4 | O=S(=O)(NCC1CN(CCOc2cccc3c2OCCO3)C1)c1ccc(F)cc1 [Compound 182, N-[[1-[2-(2,3-Dihydro-1,4-benzodioxin-5-yloxy)ethyl]azetidin-3-yl]methyl]-4-fluoro-benzenesulphonamide] | 95% | 31% | -7% | 45% | 78% | 61% | 33% | 63% |  |  |  |  |  |  | 
5 | O=S(=O)(NC1CCN(CCOc2cccc3ccccc23)CC1)c1cccc(O)c1 [Compound 119, 3-Hydroxy-N-[1-[2-(1-naphthyloxy)ethyl]-4-piperidine]benzene-sulphonamide] |  |  |  |  | 78% |  |  |  | 85% | 57% | 10% | 93% | 69% | 79% | 89%
6 | N-[1-[3-(6-Fluoro-1,2-benzoxazol-3-yl)propyl]pyrrolidin-3-yl]benzene-sulphonamide [Compound 6] |  |  |  |  | 98% |  |  |  | 83% | 44% | 18% | 8% | 77% | 70% | 14%
7 | Cn1ccc2cc(S(=O)(=O)NCC3CCN(CCOc4cccc5ccccc45)C3)ccc21 (stereo not shown) [Compound 274, 1-Methyl-N-[[1-[2-(1-naphthyloxy)ethyl]pyrrolidin-3-yl]methyl]indole-5-sulphonamide] | 86% | 97% | 109% | 81% | 41% | 89% | 62% | 77% |  |  |  |  |  |  | 
8 | O=S(=O)(NCC1CN(CCOc2cccc3ccccc23)C1)c1ccc(F)c(Cl)c1 [Compound 172, 3-Chloro-4-fluoro-N-[[1-[2-(1-naphthyloxy)ethyl]azetidin-3-yl]methyl]-benzenesulphonamide] | 92% | 96% | 46% | 100% | 40% | 71% | 76% | 85% |  |  |  |  |  |  | 
